Data as given in ChEMBL document CHEMBL1201862, “PubChem BioAssay data set” (2004).
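All cell lines were grown in 96-well plates and treated with compound for 48 hours. Here, GI50 denotes the concentration required for 50% inhibition of growth.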 Active and inactive are the calls of the source. No stated cut-off is given here; in the data, active = GI50 up to about 1.1 µM and inactive = higher.

Tests used:
Test in all cases: DTP human tumour cell line panel, 48 h
MDA-MB-435 = tested on: MDA-MB-435
SNB-19 = tested on: SNB-19
SK-MEL-2 = tested on: SK-MEL-2
NCI-H460 = tested on: NCI-H460
SK-MEL-5 = tested on: SK-MEL-5
MCF7 = tested on: MCF7
SK-OV-3 = tested on: SK-OV-3
MDA-MB-231 = tested on: MDA-MB-231
CAKI-1 = tested on: CAKI-1
PC-3 = tested on: PC-3
SNB-75 = tested on: SNB-75
HOP-92 = tested on: HOP-92
T47D = tested on: T47D
U-251 = tested on: U-251
OVCAR-8 = tested on: OVCAR-8
KM12 = tested on: KM12
MOLT-4 = tested on: MOLT-4
RXF 393 = tested on: RXF 393
A549 = tested on: A549
EKVX = tested on: EKVX

Measured: GI50

Clc1ccc(C2ON=C(c3ccccc3)N2C23CC4CC(CC(C4)C2)C3)cc1Cl (stereo not given)
inactive: MDA-MB-435 > 10 µM | SNB-19 > 10 µM | SK-MEL-2 > 10 µM | NCI-H460 > 10 µM | SK-MEL-5 > 10 µM | MCF7 > 10 µM | SK-OV-3 > 10 µM | MDA-MB-231 > 10 µM | CAKI-1 > 10 µM | PC-3 > 10 µM | SNB-75 > 10 µM | HOP-92 7.13 µM | T47D > 10 µM | U-251 > 10 µM | OVCAR-8 > 10 µM | KM12 > 10 µM | MOLT-4 > 10 µM | RXF 393 > 10 µM | A549 > 10 µM | EKVX > 10 µM
